The source of these data is article PMC12993615 (The journal of pain, 2024).

Data set [1] is described as follows: Terminal plasma and brain concentrations, OIPN treatment study. It is filed as in vivo. The following applies: after 7 days dosing 25 mg/kg BID. The text has this: Body weight was monitored throughout the study, and terminal plasma and whole brain samples were taken for bioanalysis.
For data set [2], the system named is oxaliplatin-induced mechanical allodynia. The experiment in a line: Prevention of OIPN, paw withdrawal threshold. Type of data set: in vivo, male Sprague Dawley rats. The method, then:
(§1) Male Sprague Dawley rats (150–210 g) were housed in groups of 4 in intra-ventilated Perspex home cages. Humidity, temperature (21 ± 1 °C), and lighting (light-dark cycle of 12:12 hours) were controlled and maintained in the home cages, with food and water available ad libitum. Rats acclimatised to the home cages for at least 1 week. All experiments were carried out according to the Animals (Scientific Procedures) Act, 1986 (U.K. Government Home Office). The study was performed under the Home Office project licence number PP0847012. OIPN was established with a single dose of OXA (10 mg/kg, IP).
Pain measurements were made on Days 5/6 (when neuropathy has normally developed) and at the end of the study. […] Terminal plasma samples were taken for bioanalysis and proteomics (Somalogic). Brain regions involved in pain processing, that is, prefrontal cortex (PFC), periaqueductal grey (PAG), whole spinal cords (SC), and L4-L6 dorsal root ganglia, were collected for lipidomic and genomic (Genewiz, China) analyses.
Tactile allodynia (primary outcome measure) was assessed using paw withdrawal threshold (PWT), a measure of pain sensitivity. PWT was evaluated using calibrated von-Frey monofilaments (Touch-Test Sensory Evaluator; Scientific Marketing Associates) applied to the plantar surface of the left hind paw. PWT was determined by increasing and decreasing stimulus intensity and estimated using Dixon’s up-down method.[38],[39]
To acquire baseline readings, pain behaviour was assessed on 3 consecutive days (Days −3, −2, −1). The mean of Day −2 and Day −1 was considered the healthy baseline (HBL) prior to OIPN induction. On Days 5 and 6 after OXA injection, thresholds were reassessed. The mean of Days 5 and 6 was considered the neuropathic baseline (NPB). Animals were then ranked and randomised (based on a Latin square design) to treatment groups according to the percentage change of the mean thresholds observed in the NPB compared to the HBL. NPB expressed as a percentage change from HBL was calculated as follows (HBL-NPB)/HBL*100. All behavioural assessment was done by an experimenter blinded to the identity of the treatment. Separate people were responsible for dosing and assessment/data analysis.

Data set [3] concerns oxaliplatin-induced thermal hyperalgesia. The experiment in a line: Prevention of OIPN, cold plate latency. Type of data set: in vivo, male Sprague Dawley rats. The settings on record: 25 mg/kg BID, P < .001. The method, then:
as §1
Pain measurements were made on Days 5/6 (when neuropathy has normally developed) and at the end of the study. […] Terminal plasma samples were taken for bioanalysis and proteomics (Somalogic). […]
Thermal hyperalgesia was assessed using a cold plate (Bioseb, France) set at a fixed temperature of 15 °C. Latency to the first escape behaviour from the plate was measured indicating discomfort to the thermal stimulation. […]
To acquire baseline readings, pain behaviour was assessed on 3 consecutive days (Days −3, −2, −1). […] NPB expressed as a percentage change from HBL was calculated as follows (HBL-NPB)/HBL*100. […]

Data set [4] is described as follows: Plasma concentration in PKPD time course (established OIPN). Type of data set: in vivo, male Sprague Dawley rats. The settings on record: OIPN rats, single 100 mg/kg PO. The protocol: The doses were based on previous studies that used these antagonists in animal models of CIPN.[33]–[37]
Quantitative bioanalysis by LC-MS/MS of plasma and spinal cord levels of ART26.12 was carried out by a commercial supplier (Sygnature Discovery, Nottingham, UK).

For data set [5], the system named is PAG, DRG and PFC transcriptomes. Description: Transcriptomic analysis (RNA-seq) of terminal tissues, OIPN prevention study. Type of data set: in vivo, male Sprague Dawley rats. The text has this:
Pain measurements were made on Days 5/6 (when neuropathy has normally developed) and at the end of the study. […] Terminal plasma samples were taken for bioanalysis and proteomics (Somalogic). Brain regions involved in pain processing, that is, prefrontal cortex (PFC), periaqueductal grey (PAG), whole spinal cords (SC), and L4-L6 dorsal root ganglia, were collected for lipidomic and genomic (Genewiz, China) analyses. Sequencing (Illumnia NovoSeq) was done at Genewiz (Shanghai, China). Sequence reads were trimmed using Trimmomatic (v.0.36). Reads were then aligned to the R. norvegicus Rnor6.0 reference genome (https://www.ncbi.nlm.nih.gov/assembly/GCF_000001895.5/) using the STAR aligner (v.2.5.2b) and unique gene hit counts were calculated using featureCounts from the Subread package (v.1.5.2). Differentially expressed genes were determined using limma 3.46.0. […] Visualisation was done using the EnhancedVolcano (1.7.10) package in R. Gene set enrichment analysis was carried out using the gprofiler2 package in R.

Data set [6] is described as follows: Oral bioavailability / pharmacokinetics in rats. It is filed as in vivo. The following applies: Sprague Dawley, rat, plasma, male rats. The protocol: Following intravenous and oral administration, blood samples (ca .2 mL) were collected from the jugular vein. For IV group, blood samples were collected at .083, .25, .5, 1, 2, 4, 6, 8, 24 hours post-dose. For PO group, blood samples were collected at .25, .5, 1, 2, 4, 6, 8, 24 hours post-dose. Blood samples were collected into tubes containing the anticoagulant K2EDTA. Plasma samples were prepared by centrifugation and dispensed into 1.5 mL matrix tubes and stored in a freezer (−75 ± 1°C) prior to analysis.

In data set [7] the target is FABP3 (Homo sapiens, UniProt P05413). The experiment in a line: Fluorescence displacement binding assay (DAUDA probe). The method, then: Purified FABPs were incubated with 11-(dansylamino)undecanoic acid (DAUDA) (FABP3, FABP5) or 8-anilino-1-naphthalenesulfonic acid (ANS) (FABP7) in the presence or absence of FABP inhibitors (.01–200 μM) in the binding assay buffer. FABP4 binding was assessed using a commercially available kit (Cayman Chemical, Ann Arbor). In all cases, arachidonic acid (10 μM) was included to account for maximal probe displacement. Loss of fluorescence intensity was monitored with an F5 Filtermax Multi-Mode Microplate Reader (Molecular Devices, Sunnyvale) using the following excitation and emission wavelengths (DAUDA: ex./em.= 360/535 nm; ANS: ex./em. = 360/465 nm). Following background subtraction, the fluorescence intensity values were normalised and analyzed via a one-site binding model using the GraphPadPrism (version 9.2). Ki values were determined using the following equation: Ki= IC50/(1 + ([Probe]/Kd).
Sequence of FABP3 (P05413 whole entry, species assumed): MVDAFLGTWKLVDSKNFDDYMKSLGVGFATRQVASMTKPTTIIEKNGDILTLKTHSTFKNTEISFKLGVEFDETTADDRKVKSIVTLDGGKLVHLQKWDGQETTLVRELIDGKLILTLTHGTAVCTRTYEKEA

For the compound `COc1ccccc1[C@@H]1[C@H](C(=O)O)[C@@H](c2ccccc2OC)[C@H]1C(=O)OC1Cc2ccccc2C1` [ART26.12, (+)–3-Indan-2-yloxycarbonyl-2,4-bis(2-methoxyphenyl)cyclobutanecarboxylic acid], the “average total plasma concentration” value in data set [1] is listed as 6.5 ± .6 µM. Also, in data set [1], the total brain concentration entry is given as “.15 ± .02 µM”. In addition, the “PWT on Day 5/6 compared to HBL” value is “significantly lower PWTs” in data set [2] (10 mg/kg BID, P < .001) and “significantly lower PWTs” in data set [2] (25 mg/kg BID, P < .05). Also, in data set [2] (ART26.12 10 or 25 mg/kg BID groups), the “PWT on Day 14 compared to HBL” value is recorded as “neither the ART26.12 nor the pregabalin groups showed significant allodynia”. In addition, the “cold plate latencies on Day 14 versus vehicle” value in data set [3] is listed as “significantly higher cold plate latencies than the vehicle group”. The “peak total plasma concentration” value in data set [4] (mean ± SEM) was 122 ± 13 µM. The Tmax in data set [4] (male, Sprague Dawley, rat, plasma, read-out: time of peak plasma concentration) is ~3 h; in data set [6] (PO 10 mg/kg), ~0.5 h; in data set [6] (PO 300 mg/kg) it was ~6.6 h. Further, the “transcriptomic changes in PFC” value in data set [5] was “No significant changes”. In data set [5] (P < .05, FC > 1.5), the “transcriptomic changes in DRG” value is reported as “only glycine decarboxylase being significantly upregulated”. The “number of significantly different genes in PAG” value in data set [5] (P < .05, log2FC > .58) is reported as 20 genes. This compound also displayed a clearance in data set [6] (IV 2 mg/kg) of 14 mL/min/kg. Further, the half-life (as a rule, how long it takes for the measured level to halve) in data set [6] (IV 2 mg/kg) was 2.6 h; in data set [6] (PO 300 mg/kg), 3.8 h. Further, in data set [6] (IV 2 mg/kg, read-out: volume of distribution), the Vd is 1.3 L/kg. Further, the bioavailability in data set [6] (PO 300 mg/kg) was 163%; in data set [6] (single oral dose 10 mg/kg), 73%. In addition, the Ki – broadly, a dissociation constant, usually derived from enzyme kinetics or from competition with a known ligand – in data set [7] turned out to be 71.3 ± 2.4 µM.
